Activity calls are given as the source filed them.
How the values were obtained:
[1] = Induction of mitochondria mediated intrinsic apoptosis in human HGC-27 cells assessed as late apoptotic cells at 20 nM measured after 48 hrs by flow cytometry analysis (reference value: 93.6%); format: functional
HGC-27 [2] = assay: Inhibition of ERK signalling pathway in human HGC-27 cells assessed as downregulation of c-Raf phosphorylation at 10 to 30 nM incubated for 48 hrs; format: cell-based; details: dose 10-30 nM
MGC-803 [3] = assay: Induction of apoptosis in human MGC-803 cells assessed as decrease in Mcl-1 level; format: functional, cell-based; details: dose 5-15 nM, DDE = dose-dependent effect
Mus musculus = assay: Upregulation of phosphorylated Histone H3 expression in tumor tissue of BALB/c nude mouse xenografted with human MGC-803 cells at 15 to 30 mg/kg, ip administered once daily for 21 days by Western blotting analysis; format: functional, organism-based; details: dose 15-30 mg/kg, time 21.0 day
HGC-27 [4] = assay: Antiinvasive activity against human HGC-27 cells assessed as reduction in number of cells in membrane incubated for 48 hrs by trans well assay; format: functional, cell-based; details: dose 10-30 nM, DDE = dose-dependent effect
[5] = target: Tubulin beta (Homo sapiens) (UniProt P68371+Q9H4B7+Q13509+P04350+Q3ZCM7+P07437+Q13885+Q9BVA1+Q9BUF5+A6NNZ2); assay: Binding affinity to beta-tubulin colchicine binding site in human MGC-803 cells assessed as decrease in beta-tubulin adduct band incubated for 2 hrs by EBI alkylate competition assay; format: cell-based; details: dose 0.075-0.75 µM, DDE = dose-dependent effect
SH-SY5Y = assay: Antiproliferative activity against human SH-SY5Y cells assessed as reduction in cell viability incubated for 48 hrs by MTT assay; format: functional, cell-based
MGC-803 [6] = assay: Antiproliferative activity against human MGC-803 cells assessed as inhibition of cell growth at 5 to 15 nM incubated for 60 hrs; format: functional, cell-based; details: dose 5-15 nM
HGC-27 [7] = assay: Induction of cell cycle arrest in human HGC-27 cells assessed as accumulation of cells at G2/M phase at 15 nM incubated for 48 hrs by propidium iodide staining based flow cytometry analysis (reference value: 11%); format: functional
HGC-27 [8] = assay: Induction of apoptosis in human HGC-27 cells assessed as decrease in Bcl-2 level; format: functional, cell-based; details: dose 10-30 nM, DDE = dose-dependent effect
[9] = target: c-Jun N-terminal kinase, JNK (Homo sapiens) (UniProt P45983+P53779+P45984); assay: Inhibition of JNK signalling pathway in human MGC-803 cells assessed as reduction in JNK phosphorylation at 5 to 15 nM incubated for 48 hrs; format: cell-based; details: dose 5-15 nM
MGC-803 [10] = assay: Downregulation of c-Myc expression in human MGC-803 cells incubated for 48 hrs; format: functional, cell-based; details: dose 5-15 nM, DDE = dose-dependent effect
HGC-27 [11] = assay: Induction of apoptosis in human HGC-27 cells assessed as nuclear fragmentation at 10 to 30 nM incubated for 48 hrs by DAPI staining based analysis; format: functional, cell-based; details: dose 10-30 nM
[12] = Toxicity in BALB/c nude mouse xenografted with human MGC-803 cells assessed as pathological changes in kidney at 15 to 30 mg/kg, ip administered once daily for 21 days by Hematoxyin-eosin staining based analysis; format: organism-based; details: in vivo, 504 h, dose 15-30 mg/kg, time 21 day
[13] = Induction of mitochondria mediated intrinsic apoptosis in human MGC-803 cells assessed as early apoptotic cells at 5 nM measured after 48 hrs by flow cytometry analysis (Rvb= 1.6%); format: functional
MGC-803 [14] = assay: Downregulation of phosphorylated ATF-2 expression in human MGC-803 cells incubated for 48 hrs; format: functional, cell-based; details: dose 5-15 nM, DDE = dose-dependent effect
NCI-H520 = assay: Antiproliferative activity against human NCI-H520 cells assessed as reduction in cell viability incubated for 48 hrs by MTT assay; format: functional, cell-based; details: NCI-H520, 48 h
Tubulin (Homo sapiens) = Tubulin (Homo sapiens) (UniProt P68371+Q9H4B7+P0DPH7+P68366+Q13509+Q71U36+P04350+Q3ZCM7+P07437+P68363+Q9BQE3+Q6PEY2+Q13885+Q9BVA1+Q9BUF5); assay: Disruption of microtubule network in human MGC-803 cells assessed as cytoskeleton disruption at 5 to 15 nM measured after 48 hrs by DAPI staining based fluorescence microscopic analysis; format: cell-based; details: dose 5-15 nM
HGC-27 [15] = assay: Downregulation of phosphorylated Elk-1 expression in human HGC-27 cells incubated for 48 hrs; format: functional, cell-based; details: dose 10-30 nM, DDE = dose-dependent effect
MGC-803 [16] = assay: Induction of apoptosis in human MGC-803 cells assessed as increase in cleavage caspase 3 level; format: functional, cell-based; details: dose 5-15 nM, DDE = dose-dependent effect
HGC-27 [17] = assay: Downregulation of cyclin B1 expression in human HGC-27 cells at 10 to 30 nM incubated for 48 hrs; format: functional, cell-based; details: dose 10-30 nM
HGC-27 [18] = assay: Induction of apoptosis in human HGC-27 cells assessed as increase in dead cells at 10 to 30 nM incubated for 48 hrs by calcein-AM dye/propidium iodide staining based analysis; format: functional, cell-based; details: dose 10-30 nM
MGC-803 [19] = assay: Inhibition of ERK signalling pathway in human MGC-803 cells assessed as downregulation of MEK1/2 phosphorylation at 5 to 15 nM incubated for 48 hrs; format: cell-based; details: dose 5-15 nM
MGC-803 [20] = assay: Inhibition of p38 signalling pathway in human MGC-803 cells assessed as reduction in MKK3/6 phosphorylation at 5 to 15 nM incubated for 48 hrs; format: cell-based; details: dose 5-15 nM
HGC-27 [21] = assay: Downregulation of cdc2 phosphorylation at Thr14 residue in human HGC-27 cells at 10 to 30 nM incubated for 48 hrs; format: functional, cell-based; details: dose 10-30 nM
[22] = Induction of mitochondria mediated intrinsic apoptosis in human MGC-803 cells assessed as late apoptotic cells at 10 nM measured after 48 hrs by flow cytometry analysis (Rvb= 98.2%); format: functional
HGC-27 [23] = assay: Induction of apoptosis in human HGC-27 cells assessed as increase in Noxa level; format: functional, cell-based; details: dose 10-30 nM, DDE = dose-dependent effect
HGC-27 [24] = assay: Inhibition of cell migration in human HGC-27 cells assessed as reduction in wound healing rate at 10 to 30 nM incubated for 24 hrs; format: functional, cell-based; details: dose 10-30 nM
[25] = Toxicity in BALB/c nude mouse xenografted with human MGC-803 cells assessed as pathological changes in liver at 15 to 30 mg/kg, ip administered once daily for 21 days by Hematoxyin-eosin staining based analysis; format: organism-based; details: in vivo, 504 h, dose 15-30 mg/kg, time 21 day
HGC-27 [26] = assay: Upregulation of phosphorylated Histone H3 expression in human HGC-27 cells at 10 to 30 nM incubated for 48 hrs; format: functional, cell-based; details: dose 10-30 nM
MGC-803 [27] = assay: Antitumor activity against human MGC-803 cells xenografted BALB/c nude mouse assessed as tumor growth inhibition at 15 mg/kg, ip administered once daily for 21 days; format: functional; details: MGC-803, 504 h, time 21 day, read-out: TGI
HGC-27 [28] = assay: Inhibition of p38 signalling pathway in human HGC-27 cells assessed as reduction in MKK3/6 phosphorylation at 10 to 30 nM incubated for 48 hrs; format: cell-based; details: dose 10-30 nM
HGC-27 [29] = assay: Induction of apoptosis in human HGC-27 cells assessed as increase in total apoptotic cells at 30 nM incubated for 48 hrs by annexin V FITC and propidium iodide staining based flow cytometry analysis (reference value: 7.2%); format: functional
MGC-803 [30] = assay: Induction of apoptosis in human MGC-803 cells assessed as increase in cleavage substrate PARP level; format: functional, cell-based; details: dose 5-15 nM, DDE = dose-dependent effect
MGC-803 [31] = assay: Inhibition of p38 signalling pathway in human MGC-803 cells assessed as reduction in downstream substrate HSP-27 phosphorylation at 5 to 15 nM incubated for 48 hrs; format: cell-based; details: dose 5-15 nM
HGC-27 [32] = assay: Downregulation of Wee1 expression in human HGC-27 cells at 10 to 30 nM incubated for 48 hrs; format: functional, cell-based; details: dose 10-30 nM

CN(c1ccc2c(ccn2C)c1)c1cc(=O)oc2ccccc12
70%: inhibition in vivo at 15 mg/kg (MGC-803 [27])
85%: Activity (HGC-27 [7])
47.3%: Activity (HGC-27 [29])
78.3%: Activity [1]
92.5%: Activity [22]
33.4 nM: IC50 (NCI-H520)
active: inhibition (HGC-27 [2]) | Activity (MGC-803 [3]) Dde | Activity (Mus musculus) | Activity (HGC-27 [4]) Dde | Activity [5] Dde | inhibition (MGC-803 [6]) | Activity (HGC-27 [8]) Dde | inhibition [9] | Activity (MGC-803 [10]) Dde | Activity (HGC-27 [11]) | Activity (MGC-803 [14]) Dde | Activity (Tubulin (Homo sapiens)) | Activity (HGC-27 [15]) Dde | Activity (MGC-803 [16]) Dde | Activity (HGC-27 [17]) | Activity (HGC-27 [18]) | inhibition (MGC-803 [19]) | inhibition (MGC-803 [20]) | Activity (HGC-27 [21]) | Activity (HGC-27 [23]) Dde | inhibition (HGC-27 [24]) | Activity (HGC-27 [26]) | inhibition (HGC-27 [28]) | Activity (MGC-803 [30]) Dde | inhibition (MGC-803 [31]) | Activity (HGC-27 [32])
1.8%: Activity [13]
19.4 nM: IC50 (SH-SY5Y)
Non-Toxic: Activity [12] | Activity [25]

— ChEMBL document CHEMBL5137024, “Discovery of novel coumarin-indole derivatives as tubulin polymerization inhibitors with potent anti-gastric cancer activities” (Eur J Med Chem, 2022)
